Reference: patent publication US10864168B2, “Bioactive delivery vehicles” (The Regents of the University of California, priority 2014, dated 2020)
Values belong to the molecule of their own block, whether it stands above or below them.

How the values were obtained:
E. coli (BL21) = experiment: Encapsulation efficiency into bacteria by vacuum infusion; format: physicochemical; settings: vacuum infused, 35% ethanol
inactivated yeast = experiment: Encapsulation of bioactives into inactivated yeast cells (conventional diffusion, vacuum infusion, pressure); format: physicochemical, Saccharomyces cerevisiae
From the text: Prior to encapsulation of bioactives, selected strains of both yeast and algal cells are inactivated with a chemical treatment. Chemical inactivation of yeast or algal cells stops the metabolic processes while preserving the structure and chemical composition of the cells. […] The concentration of ethanol is selected based on the results of the previous study. Briefly, 1 gm of yeast or algal cells pellet is suspended in the 35% ethanolic solution of the selected bioactive compound. […] We have determined the % ethanol to achieve sufficient encapsulation of the selected encapsulated bioactive compounds using both the vacuum and high pressure assisted encapsulation process. Yeast or algal cell samples suspended in the ethanolic solution with the bioactive compound are sealed in boilable vacuum bags (Prime Source) at 99% vacuum (Ultravac 250, Koch Equipment LLC). […] The sealed samples are covered with aluminum foil to prevent any photo-degradation of the bioactives and incubated at room temperature (25° C.) for 10 minutes. Samples are emptied into 50 mL centrifuge tubes, centrifuged at 2200 rpm for 10 minutes to pellet the cells and the pelleted cells are washed twice with ethanolic solution (35%) and then five times with excess water to remove unencapsulated bioactives. […] Samples are emptied into 50 mL centrifuge tubes, centrifuged to pellet the cells (2200 rpm for 10 minutes) and the pelleted cells are washed twice with ethanolic solution (35%) and then five times with excess water to remove unencapsulated bioactives. Briefly, yeast or algal samples in a 35% ethanolic solution of the selected bioactive compound are covered with a single layer of aluminum foil to prevent photolysis. Samples are then placed into a rotary incubator at 50° C. and 200 rpm for 24 hours. After removal from the incubator, cells are removed by centrifugation at 2000 rpm for 10 minutes. The supernatant is decanted to isolate the pelleted cells and the pelleted cells are washed as described above to remove unencapsulated bioactives. Cells are sonicated to disrupt the cellular structure. A methanol extraction is utilized to extract the encapsulated bioactives from the disrupted yeast or algal cells. 0.05 g of cells (wet basis) with encapsulated bioactives are sonicated to disrupt cellular structure and subsequently incubated with 1 mL methanol. Samples are then briefly vortexed and centrifuged at 14,000 rpm for 10 minutes. The concentration of bioactive compound dissolved in the organic phase is measured using UV-vis spectrophotometer. […] Measuring loading of these bioactive compounds in various emulsions and nanoparticles has been described. The encapsulation efficiency is determined as follows: [formula] where CE is the mass of extracted bioactive from the cells after encapsulation and CT is the amount of bioactive initially added to the cells. We have developed an innovative bioencapsulation process that provides rapid and efficient infusion of bioactives in isolated cells and lipid bodies. In this process, yeast or algal cells incubated in a solution containing bioactive were subjected to a vacuum (97% vacuum) or mild-high hydrostatic pressure (35-100 MPa) for ˜5-10 minutes. […] The results of these measurements were compared with the conventional process used for encapsulation of bioactive compounds in yeast cells.

L. casei (S1) = experiment: Encapsulation efficiency into bacteria by vacuum infusion; format: physicochemical, Lactobacillus casei; settings: vacuum infused, 35% ethanol
[1] = Storage stability of encapsulated retinol at room temperature, exposure to atmospheric oxygen; format: physicochemical; settings: cell-based encapsulants / lipid membrane microcapsules
From the text: FIG. 10 illustrates stability of retinol encapsulated yeast cells as compared to retinol in emulsion and nanoparticles at room temperature. Stability of all-trans retinol encapsulated in casein stabilized emulsion, zein nanoparticles and yeast cells. The percent recovery of retinol in model systems after exposure to atmospheric oxygen is shown. Yeast cells provided the most stability to retinol, nearly 100% up to 5 days, while zein and casein systems have <10% after 4 days.
Retinol was selected as a model bioactive as it is highly susceptible to oxidative degradation at room temperature.

[2] = Thermal stability of retinol, cell encapsulated versus emulsions; format: physicochemical; settings: vacuum and/or HPP infusion methods, compared to emulsions
Protocol: Comparative percent recovery of retinol in emulsions and yeast after processing at 70° C. for 30 minutes. The retinol was extracted using methanol and the absorbance was measured at 325 nm.

porcine skin = experiment: Nile Red release from yeast encapsulation system into porcine skin; settings: yeast microcapsules loaded with Nile Red; room temperature, 12 hours
Protocol: The Nile Red fluorescence signal contrast of porcine skin incubated with yeast encapsulation system and non-incubated porcine skin was evaluated. Yeast microcapsules were loaded with Nile Red dye and spread on porcine skin surface. After incubation at room temperature for 12 hours, fluorescence images were taken on the 20 μm-thick slice of tissue cross-section. The results are depicted in FIG. 17. […] This encapsulation system thus provides an option for convenient, pain-free and efficient compound delivery, which can be self-administered and operate as an alternative to oral dosing or injections.

[3] = 100 mM PBS, pH = 6.5, Conventional Diffusion, saturated solution, 35% v/v ethanol
[4] = 100 mM PBS, pH = 6.5, HPP (200 MPa), saturated solution, 35% v/v ethanol
[5] = 100 mM PBS, pH = 6.5, Vacuum Infusion, saturated solution, 35% v/v ethanol
[6] = 2% Tween 20 in 100 mM Tris Buffer, pH = 8, Conventional Diffusion, saturated solution, 35% v/v ethanol
[7] = 2% Tween 20 in 100 mM Tris Buffer, pH = 8, HPP (200 MPa), saturated solution, 35% v/v ethanol
[8] = 2% Tween 20 in 100 mM Tris Buffer, pH = 8, Vacuum Infusion, saturated solution, 35% v/v ethanol
[9] = Conventional Diffusion, Single Loading
[10] = Vacuum, Dual Loading (curcumin and fisetin added together)
[11] = commercial yeast, 1 vacuum cycle, 35% ethanol
[12] = commercial yeast, 3 cycles of 99% vacuum, 5 min incubation between, no additional fisetin added
[13] = inactivated yeast, Conventional Methods, 24 hours, 50° C.
[14] = inactivated yeast, Mild Pressure (35 Mpa), 10 minutes
[15] = inactivated yeast, Vacuum (5 minutes)

Encapsulation Efficiency (E. coli (BL21)): 30.8% | Mass of Encapsulated Bioactive in Bacteria (E. coli (BL21)): 1.619 mg/g | Encapsulation Efficiency (inactivated yeast; [3]): 42.6% | Mass of Encapsulated Bioactive in Yeast (inactivated yeast; [3]): 1.11 mg/g | Encapsulation Efficiency (inactivated yeast; [4]): 99.3% | Mass of Encapsulated Bioactive in Yeast (inactivated yeast; [4]): 2.59 mg/g | Encapsulation Efficiency (inactivated yeast; [5]): 105.3% | Mass of Encapsulated Bioactive in Yeast (inactivated yeast; [5]): 2.75 mg/g | Encapsulation Efficiency (inactivated yeast; [6]): 58.7% | Mass of Encapsulated Bioactive in Yeast (inactivated yeast; [6]): 2.31 mg/g | Encapsulation Efficiency (inactivated yeast; [7]): 54.8% | Mass of Encapsulated Bioactive in Yeast (inactivated yeast; [7]): 2.16 mg/g | Encapsulation Efficiency (inactivated yeast; [8]): 80.7% | Mass of Encapsulated Bioactive in Yeast (inactivated yeast; [8]): 3.18 mg/g | Encapsulation Efficiency (inactivated yeast; [9]): 12.2% | Mass of Encapsulated Bioactive in Yeast (inactivated yeast; [9]): 0.061 mg/g | Encapsulation Efficiency (inactivated yeast; [10]): 96.0% | Mass of Encapsulated Bioactive in Yeast (inactivated yeast; [10]): 0.480 mg/g | Encapsulated Efficiency (inactivated yeast; [11]): 69.5% | Mass of Encapsulated Bioactive in Yeast (inactivated yeast; [11]): 3.65 mg/g | Encapsulated Efficiency (inactivated yeast; [12]): 76.4% | Mass of Encapsulated Bioactive in Yeast (inactivated yeast; [12]): 4.01 mg/g | encapsulation efficiency (percent ratio of encapsulated bioactive with respect to total bioactive in solution) (inactivated yeast; [13]): 11% | encapsulation efficiency (percent ratio of encapsulated bioactive with respect to total bioactive in solution) (inactivated yeast; [14]): 68% | encapsulation efficiency (percent ratio of encapsulated bioactive with respect to total bioactive in solution) (inactivated yeast; [15]): 64% | encapsulation efficiency relative to conventional diffusion techniques (inactivated yeast; inactivated yeast, vacuum or HPP): 1.4-2.3 × | Encapsulation Efficiency (L. casei (S1)): 43.2% | Mass of Encapsulated Bioactive in Bacteria (L. casei (S1)): 2.271 mg/g
Compound: O=c1c(O)c(-c2ccc(O)c(O)c2)oc2cc(O)ccc12 [Fisetin, fisetin]

encapsulation efficiency (percent ratio of encapsulated bioactive with respect to total bioactive in solution) (inactivated yeast; [13]): 15% | encapsulation efficiency (percent ratio of encapsulated bioactive with respect to total bioactive in solution) (inactivated yeast; [14]): 70% | encapsulation efficiency (percent ratio of encapsulated bioactive with respect to total bioactive in solution) (inactivated yeast; [15]): 45% | improvement of storage stability as compared to other encapsulation systems, including nanoparticles and emulsions [1]: at least 5 fold | reduction of loss of retinol during thermal processing [2]: 25-30%
Compound: CC1=C(/C=C/C(C)=C/C=C/C(C)=C/CO)C(C)(C)CCC1 [Retinol, retinol]

Compound: CCN(CC)c1ccc2nc3c4ccccc4c(=O)cc-3oc2c1 [Nile Red]
release and permeation into porcine skin (porcine skin): effectively released from yeast cells, further permeated crossing the stratum corneum and reached the dermis layer
